Test in all cases: NCI-60 cell line screen, 48 h
Experiment [1] concerns CAKI-1 renal.
Experiment [2] deals with MOLT-4 leukemia.
The test system of experiment [3] is EKVX NSCLC.
The subject of experiment [4] is TK-10 renal.
The test system of experiment [5] is UACC-257 melanoma.
Experiment [6] has as its system U251 CNS.
For experiment [7], the system named is HL-60(TB) leukemia.
The subject of experiment [8] is CCRF-CEM leukemia.
Experiment [9] concerns ACHN renal.
Experiment [10] has as its system RPMI-8226 leukemia.

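Growth conditions: 96-well plates. Treatment: test compound, 48 hours, 5 concentrations. Analysis: linear interpolation between bracketing concentrations; unreached endpoints set to highest concentration. The concentration for 50% growth inhibition is given as GI50. TGI denotes the concentration required for complete inhibition of growth.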

For the compound `O=C(NNc1cnccn1)c1nc2cc(F)ccc2n2cccc12`, the GI50 in experiment [1] is 0.422 µM; in experiment [2], 0.34 µM; in experiment [3] it was 0.387 µM; in [4] it was 0.647 µM; in experiment [5] it was 0.515 µM; in experiment [6] it was 0.363 µM. The GI50 in [7] is 0.346 µM; in experiment [8], 0.211 µM; in [9], 0.362 µM; in experiment [10], 0.518 µM. Also, the TGI in experiment [1], in experiment [2], in [3], in [4], in experiment [5] and in [6] was greater than 100 µM throughout. The TGI in experiment [7] was 2.82 µM; in [8], greater than 100 µM; in [9], greater than 100 µM; in [10], greater than 100 µM.

As for `Cn1cc(S(=O)(=O)N2CCC3=Cc4c(cnn4-c4ccc(F)cc4)C[C@]3(C(=O)c3cc(C(F)(F)F)ccn3)C2)cn1`, the GI50 in experiment [1] was 60.1 µM; in experiment [2], greater than 100 µM; in experiment [3], 7.98 µM; in [4], greater than 100 µM; in experiment [5] it was greater than 100 µM; in [6], greater than 100 µM. The GI50 is greater than 100 µM in experiment [7], greater than 100 µM in experiment [8], greater than 100 µM in [9] and 93.7 µM in experiment [10]. Moreover, the TGI in experiment [1], in experiment [2], in [3], in [4], in [5] and in experiment [6] was greater than 100 µM each time. Besides, the TGI in [7], in [8], in [9] and in experiment [10] was greater than 100 µM throughout.

Take `Oc1ccc(Oc2cnc3ccccc3n2)cc1`: the GI50 was 29.5 µM in experiment [1]; 41.4 µM in experiment [2]; 67 µM in experiment [3]; greater than 100 µM in experiment [4]; greater than 100 µM in experiment [5]; greater than 100 µM in experiment [6]. The GI50 is 26.3 µM in experiment [7], 24.2 µM in experiment [8], 76.6 µM in experiment [9] and greater than 100 µM in experiment [10]. Also, the TGI in experiment [1] was 81.1 µM; in experiment [2] it was greater than 100 µM; in experiment [3] it was greater than 100 µM; in [4], greater than 100 µM; in experiment [5] it was greater than 100 µM; in experiment [6], greater than 100 µM. The TGI in experiment [7], in experiment [8], in experiment [9] and in [10] was greater than 100 µM in each case.

Take `Cc1c(Cl)cccc1NC(=O)c1cccc([N+](=O)[O-])c1O`: the TGI in experiment [1] was greater than 64.1 µM; in [2], 46.7 µM; in experiment [3] it was greater than 87.6 µM; in [4], greater than 100 µM; in experiment [5], 38.8 µM; in experiment [6], 77.5 µM. Moreover, the TGI in experiment [7] was greater than 49.4 µM; in experiment [8], 34.7 µM; in experiment [9] it was 62.5 µM; in experiment [10] it was greater than 60 µM.

Take `O=C1c2ccccc2C(=O)N1C/C=N/NS(=O)(=O)c1ccc(Br)cc1`: the TGI in experiment [1], in experiment [2], in experiment [3], in [4], in experiment [5] and in [6] was greater than 100 µM in each case. Further, the TGI in [7], in experiment [8], in experiment [9] and in experiment [10] was greater than 100 µM in each case.

On to `COc1ccc(-c2ccc(NNC(=O)c3ccc(F)cc3)nn2)cc1OC`, for which the GI50 is 34.3 µM in experiment [1]; 40.6 µM in [2]; greater than 100 µM in [3]; greater than 100 µM in experiment [4]; greater than 100 µM in experiment [5]; greater than 100 µM in experiment [6]. The GI50 is 33.5 µM in [7], 38 µM in experiment [8], greater than 100 µM in [9] and 35.3 µM in experiment [10]. In addition, the TGI in experiment [1], in [2], in [3], in [4], in experiment [5] and in experiment [6] was greater than 100 µM each time. Moreover, the TGI in [7], in [8], in experiment [9] and in [10] was greater than 100 µM throughout.

Regarding `CCOC(=O)c1sc(NC(=O)COc2cccc(/C=C3\CCc4cc(OC)ccc4C3=O)c2)nc1C`, the GI50 in experiment [1] is 7.16 µM; in [2], 2.94 µM; in experiment [3], 74 µM; in [4], 21.7 µM; in [5] it was 9.79 µM; in experiment [6], 2.98 µM. For the same compound, the GI50 in experiment [7] is 1.94 µM; in experiment [8], 1.26 µM; in experiment [9], 6 µM; in experiment [10] it was 1.2 µM. Besides, the TGI in experiment [1] was greater than 100 µM; in experiment [2], 12.2 µM; in experiment [3], greater than 100 µM; in [4], greater than 100 µM; in experiment [5] it was greater than 100 µM; in experiment [6], 9.13 µM. In addition, the TGI was 4.92 µM in experiment [7], 4.3 µM in experiment [8], greater than 100 µM in [9] and 3.38 µM in experiment [10].

Consider `COc1ccc2c(c1)C(C)Cc1c(ncnc1-n1cnc3ccccc31)N2C` (stereo not given), for which the GI50 in experiment [1] is 0.373 µM; in experiment [2], 0.479 µM; in experiment [3], 0.632 µM; in experiment [4] it was 0.793 µM; in experiment [5], 13.6 µM; in experiment [6], 0.59 µM. Also, the GI50 is 0.352 µM in experiment [7], 0.481 µM in experiment [8], 0.635 µM in [9] and 0.556 µM in experiment [10]. Moreover, the TGI in experiment [1] was 17.2 µM; in experiment [2], 21.2 µM; in [3], 20 µM; in experiment [4], 37.1 µM; in [5], 26.6 µM; in [6], 16.2 µM. In addition, the TGI in experiment [7] came out at 3.74 µM; in experiment [8] it was 20.5 µM; in experiment [9] it was 27.4 µM; in experiment [10] it was 27.6 µM.

For the compound `Cn1c(=S)c2[nH]c(SCCCc3ccccc3)nc2n(C)c1=O`, the TGI in [1] was greater than 100 µM; in [2], greater than 100 µM; in experiment [3], 79.3 µM; in experiment [4], 78.9 µM; in [5] it was 44.8 µM; in [6] it was greater than 100 µM. Also, the TGI in experiment [7] is greater than 100 µM; in [8], 49.8 µM; in experiment [9] it was greater than 100 µM; in experiment [10] it was 92.6 µM.

As to `Cc1ccc2c(c1-c1ccccc1)C(=O)OC2`, the TGI is greater than 100 µM in experiment [1]; greater than 100 µM in experiment [2]; 43.4 µM in experiment [3]; greater than 100 µM in [4]; greater than 100 µM in experiment [5]; greater than 100 µM in [6]. Further, the TGI in [7], in [8], in experiment [9] and in experiment [10] was greater than 100 µM each time.

Take `CNC(C)[C@H]1CCC2C3CC=C4C(=O)[C@@H](NC(=O)C=C(C)C)CC[C@]4(C)C3CC[C@@]21C` (stereo not given in full): the GI50 was 1.68 µM in experiment [1]; 1.27 µM in experiment [2]; 1.14 µM in experiment [3]; 2.89 µM in experiment [4]; 2.33 µM in experiment [5]; 2.19 µM in [6]. In addition, the GI50 in [7] was 1.83 µM; in experiment [8] it was 1.77 µM; in experiment [9] it was 3.29 µM; in experiment [10], 1.13 µM. The TGI worked out at 5.53 µM in experiment [1]; 3.89 µM in experiment [2]; 11.2 µM in [3]; 10.4 µM in experiment [4]; 5.54 µM in [5]; 11.8 µM in experiment [6]. In addition, the TGI in experiment [7] came to 4.75 µM; in experiment [8], 7.8 µM; in experiment [9] it was 12.6 µM; in experiment [10] it was 5.27 µM.

As to `CC(C)(C)c1cc(C(=O)/C=C/c2ccc(C(=O)O)cc2)cc(C(C)(C)C)c1`, the TGI in experiment [1] turned out to be 15.5 µM; in [2], 8.31 µM; in [3], 16.9 µM; in experiment [4] it was 11.9 µM; in experiment [5], 21.9 µM; in experiment [6], 11.2 µM. Also, the TGI in [7] is greater than 100 µM; in experiment [8], 9.48 µM; in experiment [9], 15.5 µM; in [10] it was 6.06 µM.

With `CC(=O)NC1CONC1=O` (stereo not given), the TGI in experiment [1], in experiment [2], in experiment [3], in [4], in [5] and in [6] was greater than 100 µM in each case. The TGI in experiment [7], in [8], in [9] and in experiment [10] was greater than 100 µM each time.

For the compound `C1=NC(N(Cc2ccccc2)Cc2ccccc2)N(Cc2ccccc2)N1` (stereo not given), the TGI is 46.1 µM in experiment [1]; greater than 100 µM in experiment [2]; 56.2 µM in experiment [3]; 86.4 µM in experiment [4]; 33.5 µM in experiment [5]; 32.1 µM in [6]. For the same compound, the TGI in experiment [7] is greater than 100 µM; in experiment [8], greater than 100 µM; in [9] it was 57 µM; in experiment [10] it was 32.9 µM.

With `CN1C(NNC(=O)c2cccnc2)=NS(=O)(=O)c2cc(Cl)ccc21`, the GI50 in experiment [1], in [2], in experiment [3], in [4], in [5] and in experiment [6] was greater than 100 µM each time. Besides, the GI50 in [7], in [8], in experiment [9] and in experiment [10] was greater than 100 µM in each case. Besides, the TGI in experiment [1], in [2], in experiment [3], in experiment [4], in [5] and in experiment [6] was greater than 100 µM throughout. Also, the TGI in experiment [7], in experiment [8], in experiment [9] and in [10] was greater than 100 µM in each case.

On to `CC(Cl)CN1c2ccccc2Sc2ccc(Cl)cc21` (stereo not given), for which the TGI in experiment [1], in [2], in experiment [3], in experiment [4], in [5] and in [6] was greater than 10 µM in each case. Further, the TGI in [7], in experiment [8], in [9] and in [10] was greater than 10 µM each time.

As for `Cc1ccc(C)c(N2C(=O)C(=O)C(c3nc4ccccc4o3)/C(=N\NC(=O)c3ccccc3O)C2=O)c1` (stereo not given), the TGI was 18.5 µM in [1]; 52.6 µM in experiment [2]; greater than 100 µM in [3]; greater than 100 µM in experiment [4]; greater than 100 µM in experiment [5]; greater than 100 µM in experiment [6]. The TGI was 31.2 µM in experiment [7], 42.1 µM in experiment [8], greater than 100 µM in experiment [9] and 77.8 µM in experiment [10].

The values above are taken from PubChem BioAssay (NCI).
